{"source": "patent US20100256233A1", "about": "“SYSTEMS, METHODS AND COMPOSITIONS FOR REDUCTION OF INJURY FROM RADIATION EXPOSURE” (priority 2007, published 2010)", "key": {"[1]": {"test_system": "acetylation of histone H3", "experiment": "Western blot of acetylated histones in bone marrow after HDACi administration (HDACi activity)", "assay_type": "in vivo, mouse", "settings": "10 h after first dose and 5 h after second dose, s.c., TSA 0.5 + 0.5 mg/kg, VPA 600 + 300 mg/kg", "experimental": "[…] or spleens were harvested at 10 h.\nTSA is not selective and is expected to increase acetylation of histones non-specifically. FIG. 1 is a graph showing the acetylation of histone H3 relative to a beta-actin control in test samples. […] Bars indicate individual mice."}, "BALB/c mice": {"test_system": "BALB/c mice", "experiment": "Lethality / survival after total-body irradiation (TBI)", "assay_type": "in vivo", "experimental": "All studies were performed with prior approval and in accordance with institutional and national standards of animal care. The studies were approved by an Institutional Animal Care and Use Committee (“IACUC”) and were performed in an accredited AAALAC facility. Male BALB/c mice (Charles River Laboratories) 8 to 10 weeks old were allowed to acclimate for 1 week prior to the start of the study. Mice were maintained in environment-controlled (temperature and lighting) animal facilities, provided food and water ad libitum, and randomly assigned to experimental groups.\nTBI was delivered using a 185 TBq (5000 Ci) ^137Cs source (Mark I, J. L. Shepherd and Associates, San Fernando, Calif.). Doses ranged from sublethal exposures of 5.5 Gy to lethal exposures of 6.5 Gy and a supralethal exposure of 7.0 Gy. The dose rate was approximately 1 Gy per minute.\nSurvival was measured in mice after TBI with and without HDACi. Groups of mice were exposed to 6.5 or 7.0 Gy alone or in combination with HDACi, as described above. Survival was defined as the time from irradiation to the time of euthanasia, which occurred when animals had lost 20% or more of their body weight."}}}
{"smiles": "CC(/C=C/C(=O)NO)=C\\[C@@H](C)C(=O)c1ccc(N(C)C)cc1", "note": "[TSA, trichostatin-A]", "values": [{"measurement": "increase in acetylated form of histone H3 relative to the beta-actin control", "setting": "[1]", "result": "three to four-fold increase"}, {"measurement": "survival", "setting": "BALB/c mice; 7 Gy TBI, TSA 0.5 mg/kg 24 h before TBI (FIG. 5)", "result": "increased survival"}, {"measurement": "lethality (time for mice to lose 20% or more of their weight)", "setting": "BALB/c mice; after TBI", "result": "reduce lethality in a dose-dependent manner"}]}
